Measurements taken from patent US8895512B2, “Composition for improving brain function and method for improving brain function” (Calpis Co., Ltd., priority 2010, dated 2014).

Assays:
[1] = biological target: ACE (Homo sapiens, UniProt P12821); conditions: reported in reference 3; cited from earlier work
[2] = test system: scopolamine-induced amnesia; conditions: male ddY mice; single oral dose of 5000 nmol/kg weight (1300 μg/kg) 60 min before Y-shaped maze test; scopolamine 1 mg/kg s.c. 30 min before test
Method: Water (control), scopolamine alone, or 500 nmol/kg weight or 5000 nmol/kg weight of FP together with scopolamine, was administered to mice, and their respective prophylactic effects against amnesia were evaluated in accordance with a method described in Example 1.
Male mice (n=15) of the ddY strain (approximately 7-week old) were used, and they took food and water ad lib. Test substances used were 500 mol/kg weight (130 μg/kg weight) or 5000 nmol/kg weight (1300 μg/kg weight) of FP. The test substances were administered to the mice once orally 60 minutes before the execution of a Y-shaped maze test for evaluation of spontaneous alternation behavior. […] The sequence of the arms each of the mice entered was recorded. The number of entries by each of the mice for each of the arms during the measurement time was counted to be the total number of entries. […] The percentage of spontaneous alternation behavior was calculated by dividing the number of spontaneous alternation behavior by a number obtained by subtracting 2 from the total number of entries, and multiplying a resultant number by 100. […] The measured values were expressed in the form of mean±standard error for each group. A significant difference between the control group and the scopolamine control group was calculated using Student's t-test. […]

Sequence of ACE (P12821 30-1306, species assumed): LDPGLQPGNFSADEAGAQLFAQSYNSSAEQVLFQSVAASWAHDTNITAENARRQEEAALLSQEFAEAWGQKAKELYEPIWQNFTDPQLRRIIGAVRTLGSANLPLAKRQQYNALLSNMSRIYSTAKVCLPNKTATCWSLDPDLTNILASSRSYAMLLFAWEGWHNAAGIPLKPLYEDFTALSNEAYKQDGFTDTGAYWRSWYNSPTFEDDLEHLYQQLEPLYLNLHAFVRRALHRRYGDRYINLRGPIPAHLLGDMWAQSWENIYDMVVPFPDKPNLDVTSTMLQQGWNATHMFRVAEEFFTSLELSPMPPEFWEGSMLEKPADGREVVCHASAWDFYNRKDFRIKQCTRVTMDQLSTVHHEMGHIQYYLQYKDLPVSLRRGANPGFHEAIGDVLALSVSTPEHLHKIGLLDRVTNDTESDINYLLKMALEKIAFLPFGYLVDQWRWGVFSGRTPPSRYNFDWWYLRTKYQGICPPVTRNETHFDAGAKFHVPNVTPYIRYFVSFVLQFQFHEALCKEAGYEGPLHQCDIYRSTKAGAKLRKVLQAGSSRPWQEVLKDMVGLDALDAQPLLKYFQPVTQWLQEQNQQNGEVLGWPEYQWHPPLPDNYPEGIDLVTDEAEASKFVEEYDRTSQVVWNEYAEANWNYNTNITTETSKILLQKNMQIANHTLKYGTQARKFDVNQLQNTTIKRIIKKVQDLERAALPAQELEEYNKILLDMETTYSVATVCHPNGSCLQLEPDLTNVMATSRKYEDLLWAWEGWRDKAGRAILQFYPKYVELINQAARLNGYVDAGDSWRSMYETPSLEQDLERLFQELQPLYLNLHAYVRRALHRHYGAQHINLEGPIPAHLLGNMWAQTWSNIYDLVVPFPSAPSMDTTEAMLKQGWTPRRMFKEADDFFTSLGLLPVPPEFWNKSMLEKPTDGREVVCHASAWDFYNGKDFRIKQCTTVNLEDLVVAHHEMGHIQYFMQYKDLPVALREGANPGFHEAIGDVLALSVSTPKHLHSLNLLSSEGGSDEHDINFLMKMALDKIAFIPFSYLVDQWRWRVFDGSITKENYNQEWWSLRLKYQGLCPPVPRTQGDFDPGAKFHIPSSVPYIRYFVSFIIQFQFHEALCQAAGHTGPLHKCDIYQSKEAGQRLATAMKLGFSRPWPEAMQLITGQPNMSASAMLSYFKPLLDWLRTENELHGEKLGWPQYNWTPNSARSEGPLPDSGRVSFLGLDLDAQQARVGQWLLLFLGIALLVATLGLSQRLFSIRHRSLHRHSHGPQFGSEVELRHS

## Phe-Pro
[1]
  hypotensive lowering activity based on ACE inhibitory activity: hypotensive lowering activity based on ACE inhibitory activity has been reported
[2]
  prophylactic activity against amnesia (percentage of spontaneous alternation behavior): had a prophylactic activity against amnesia
